ChEMBL document CHEMBL1221187, “Histone deacetylase inhibitors reverse gene silencing in Friedreich's ataxia” (Nat Chem Biol, 2006)
Calls of active or inactive are those of the source. The calls are words filed in the database; no cut-off is given here.

Key:
Histone deacetylase = test: Inhibition of HDAC in human HeLa cell extract by fluorescence plate reader assay; type: cell-free
GM15850 [1] = test: Increase in FXN mRNA expression in human GM15850 cells at 5 uM after 96 hrs by qRT-PCR analysis relative to control; type: functional
[2] = Cytotoxicity against human GM15850 cells at 5 uM after 96 hrs by trypan blue exclusion assay; type: cell-based; conditions: gm15850, 96 h
Lymphocyte [3] = test: Increase in FXN mRNA expression in lymphocytes isolated from patient with Friedreich's ataxia at 10 uM after 48 hrs by qRT-PCR analysis; type: functional, cell-based; conditions: Homo sapiens
GM15850 [4] = test: Increase in FXN mRNA expression in human GM15850 cells at 5 uM after 12 hrs by qRT-PCR analysis relative to control; type: functional
Lymphocyte [5] = test: Effect on FXN mRNA expression in healthy human lymphocytes at 2.5 uM after 48 hrs by qRT-PCR analysis; type: functional, cell-based
Lymphocyte [6] = test: Increase in FXN mRNA expression in lymphocytes isolated from patient with Friedreich's ataxia at 5 uM after 48 hrs by qRT-PCR analysis; type: functional, Homo sapiens
Lymphocyte [7] = test: Increase in FXN mRNA expression in lymphocytes isolated from patient with Friedreich's ataxia at 5 uM after 48 hrs by qRT-PCR analysis relative to control; type: functional, Homo sapiens
[8] = Cytotoxicity against human GM15850 cells at 5 uM after 12 hrs by trypan blue exclusion assay; type: cell-based; conditions: gm15850, 12 h
[9] = Cytotoxicity against lymphocytes isolated from patient with Friedreich's ataxia at 2.5 to 5 uM after 48 hrs by trypan blue exclusion assay; type: cell-based; conditions: human, lymphocyte
GM15850 [10] = test: Increase in frataxin protein level in human GM15850 cells at 5 uM after 4 days by SDS-PAGE relative to control; type: functional
Lymphocyte [11] = test: Increase in FXN mRNA expression in lymphocytes isolated from patient with Friedreich's ataxia at 2.5 uM after 48 hrs by qRT-PCR analysis; type: functional, Homo sapiens
Lymphocyte [12] = test: Increase in FXN mRNA expression in healthy human lymphocytes at 5 uM after 48 hrs by qRT-PCR analysis; type: functional
GM15850 [13] = test: Increase in FXN mRNA expression in human GM15850 cells at 10 uM after 96 hrs by qRT-PCR analysis relative to control; type: functional
GM15850 [14] = test: Effect on FXN mRNA expression in human GM15850 cells at 5 uM after 12 hrs by qRT-PCR analysis; type: functional, cell-based
[15] = Decrease in FXN mRNA expression in human GM15850 cells at 5 uM after 12 hrs by qRT-PCR analysis; type: functional, cell-based
[16] = molecular target: T1, Histone deacetylase (Homo sapiens) (UniProt Q13547+O15379+Q9UBN7+Q92769+Q9UQL6+Q8WUI4+Q9BY41+Q96DB2+P56524+Q9UKV0+Q969S8); test: Inhibition of HDAC in human GM15850 cells assessed as increase in total acetylated histone level at 400 uM after 12 hrs by Western blot analysis; type: cell-based
[17] = molecular target: T1, Histone deacetylase (Homo sapiens); test: Inhibition of HDAC in human GM15850 cells assessed as increase in histone H4 lysine 5 acetylation of FXN gene at 5 uM after 96 hrs by chromatin immunoprecipitation assay; type: cell-based
Lymphocyte [18] = test: Increase in FXN mRNA expression in lymphocytes isolated from patient with Friedreich's ataxia at 5 uM after 48 hrs by qRT-PCR analysis relative to mRNA level in healthy human lymphocytes; type: functional
Lymphocyte [19] = test: Increase in FXN mRNA expression in lymphocytes isolated from patient with Friedreich's ataxia at 2.5 to 7.5 uM after 48 hrs by qRT-PCR analysis; type: functional, cell-based; conditions: Homo sapiens
[20] = molecular target: T1, Histone deacetylase (Homo sapiens); test: Inhibition of HDAC in human GM15850 cells assessed as increase in histone H4 lysine 16 acetylation of FXN gene at 5 uM after 96 hrs by chromatin immunoprecipitation assay; type: cell-based
Lymphocyte [21] = test: Increase in FXN mRNA expression in lymphocytes isolated from patient with Friedreich's ataxia at 10 uM after 48 hrs by qRT-PCR analysis relative to mRNA level in healthy human lymphocytes; type: functional
[22] = molecular target: T1, Histone deacetylase (Homo sapiens); test: Inhibition of HDAC in human GM15850 cells assessed as increase in histone H4 lysine 8 acetylation of FXN gene at 5 uM after 96 hrs by chromatin immunoprecipitation assay; type: cell-based
[23] = molecular target: T1, Histone deacetylase (Homo sapiens); test: Inhibition of HDAC in human GM15850 cells assessed as increase in histone H3 lysine 9 acetylation of FXN gene at 5 uM after 96 hrs by chromatin immunoprecipitation assay; type: cell-based
[24] = molecular target: T1, Histone deacetylase (Homo sapiens); test: Inhibition of HDAC in human GM15850 cells assessed as increase in histone H3 lysine 14 acetylation of FXN gene at 5 uM after 96 hrs by chromatin immunoprecipitation assay; type: cell-based
[25] = molecular target: T1, Histone deacetylase (Homo sapiens); test: Inhibition of HDAC in human GM15850 cells assessed as increase in histone H4 lysine 12 acetylation of FXN gene at 5 uM after 96 hrs by chromatin immunoprecipitation assay; type: cell-based
GM15850 [26] = test: Increase in frataxin protein level in human GM15850 cells at 2.5 uM after 4 days by SDS-PAGE relative to control; type: functional

SMILES | IC50 (Histone deacetylase) [µM] | fold change (FC) (GM15850 [1]) | Activity [2] | further results
Nc1ccccc1NC(=O)CCCCCC(=O)Nc1ccccn1 | 91 | 2.4 | Non-toxic | Activity (Lymphocyte [3]): Active
O=C(CCCCCC(=O)Nc1ccccn1)Nc1ccccc1 | 140 | 2.6 | Non-toxic | –
O=C(CCCCCC(=O)Nc1cnc2ccccc2c1)Nc1ccccc1 | 84 | 2.5 | Non-toxic | –
O=C(CCCCCC(=O)Nc1ccccc1)Nc1ccccc1 | – | – | Non-toxic | –
COc1cccc(NC(=O)CCCCCC(=O)Nc2ccccc2)c1 | > 1 | 1.8 | Non-toxic | –
COc1ccccc1NC(=O)CCCCCCC(=O)Nc1ccccc1 | 470 | 1.8 | Non-toxic | –
COc1ccc(NC(=O)CCCCCC(=O)Nc2ccccc2)cc1 | 438 | 2.5 | Non-toxic | –
COc1ccccc1NC(=O)CCCCCC(=O)Nc1ccccc1 | 54 | 2.3 | Non-toxic | –
Nc1ccccc1NC(=O)CCCCCCC(=O)Nc1ccccc1 | 87 | 1.4 | Non-toxic | fold change (FC) (GM15850 [4]): 2; Activity (Lymphocyte [5]): inactive; Activity (Lymphocyte [6]): 80%; fold change (FC) (Lymphocyte [7]): 1.8; Activity [8]: Non-toxic; Activity [9]: Non-toxic; fold change (FC) (GM15850 [10]): 3; Activity (Lymphocyte [11]): 33%; Activity (Lymphocyte [12]): inactive
Nc1ccccc1NC(=O)CCCCCC(=O)Nc1ccccc1N | 14 | 3.1 | Non-toxic | Activity (Lymphocyte [3]): Active; fold change (FC) (GM15850 [13]): 3.5
Nc1cccc(NC(=O)CCCCCC(=O)Nc2ccccc2)c1 | 500 | 1.5 | Non-toxic | –
COc1ccc(NC(=O)CCCCCC(=O)Nc2ccccc2)c(OC)c1 | 387 | 1.5 | Non-toxic | –
Nc1cccc(NC(=O)CCCCCCC(=O)Nc2ccccc2)c1 | 85 | 2.1 | Non-toxic | –
O=C(CCCCCCC(=O)Nc1ccccn1)Nc1ccccc1 | 99 | 2 | Non-toxic | Activity (Lymphocyte [3]): inactive
O=C(CCCCCC(=O)Nc1cccc2cccnc12)Nc1ccccc1 | 17 | 3 | Non-toxic | –
Nc1ccc(NC(=O)CCCCCC(=O)Nc2ccccc2)cc1 | 123 | 2.6 | Non-toxic | Activity (Lymphocyte [3]): inactive
O=C(CCCCCCC(=O)Nc1ccccc1)NO [VORINOSTAT] | – | – | Toxic | Activity (GM15850 [14]): inactive
O=C(CCCCCCC(=O)NO)NO [SUBEROHYDROXAMIC ACID] | – | – | Non-toxic | inhibition [15]: 50%
Nc1ccccc1NC(=O)CCCCC(=O)Nc1ccccc1 | 238 | 1.4 | Non-toxic | –
CC(/C=C/C(=O)NO)=C\[C@@H](C)C(=O)c1ccc(N(C)C)cc1 [TRICHOSTATIN] | – | – | Toxic | –
CCCC(CCC)C(=O)O [VALPROIC ACID] | – | – | Non-toxic | inhibition [16]: Active
Nc1ccccc1NC(=O)CCCCCC(=O)Nc1ccccc1 | 78 | 2.5 | Non-toxic | Activity [17]: Active; Activity (Lymphocyte [5]): inactive; Activity (Lymphocyte [18]): 80%; Activity (Lymphocyte [6]): 130%; fold change (FC) (Lymphocyte [7]): 2.3; Activity [9]: Non-toxic; Activity (Lymphocyte [19]): Active; Activity [20]: inactive; Activity (Lymphocyte [11]): 33%; Activity (Lymphocyte [12]): 38%; Activity (Lymphocyte [21]): 160%; Activity [22]: inactive; Activity [23]: inactive; Activity [24]: Active; Activity [25]: Active; fold change (FC) (GM15850 [26]): 3
Nc1ccc(NC(=O)CCCCCCC(=O)Nc2ccccc2)cc1 | 186 | 2 | Non-toxic | –
